Measurements from the supplement of paper PMC10307832.

What was measured:
Assay in all cases: relative viability (nuclei count vs DMSO), 5 days (fraction); higher = more cells survive
Neratinib + Luminespib = compound: CCOc1cc2ncc(C#N)c(Nc3ccc(OCc4ccccn4)c(Cl)c3)c2cc1NC(=O)/C=C/CN(C)C [Neratinib] + CCNC(=O)c1noc(-c2cc(C(C)C)c(O)cc2O)c1-c1ccc(CN2CCOCC2)cc1 [Luminespib] (partner 0.01 µM)
Outline: (§1)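 Relative viability was taken as the ratio of nuclei in treated wells to nuclei in vehicle wells. Lung cancer cell lines in 1536-well plates received compounds by pin tool one day after seeding, either one drug alone or a fixed anchor-drug dose plus five library-drug doses (not always all listed) in √10 steps. Nuclei were counted on 4× images after 5 days of treatment, and values are medians of duplicate plates.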

Neratinib + Pictilisib = compound: CCOc1cc2ncc(C#N)c(Nc3ccc(OCc4ccccn4)c(Cl)c3)c2cc1NC(=O)/C=C/CN(C)C [Neratinib] + CS(=O)(=O)N1CCN(Cc2cc3nc(-c4cccc5[nH]ncc45)nc(N4CCOCC4)c3s2)CC1 [Pictilisib] (partner 1 µM)
Outline: as §1

Neratinib + Palbociclib = compound: CCOc1cc2ncc(C#N)c(Nc3ccc(OCc4ccccn4)c(Cl)c3)c2cc1NC(=O)/C=C/CN(C)C [Neratinib] + CC(=O)c1c(C)c2cnc(Nc3ccc(N4CCNCC4)cn3)nc2n(C2CCCC2)c1=O [Palbociclib] (partner 0.5 µM)
Outline: as §1

Neratinib + OSI-027 = compound: CCOc1cc2ncc(C#N)c(Nc3ccc(OCc4ccccn4)c(Cl)c3)c2cc1NC(=O)/C=C/CN(C)C [Neratinib] + COc1cccc2cc(-c3nc([C@H]4CC[C@H](C(=O)O)CC4)n4ncnc(N)c34)[nH]c12 [OSI-027] (partner 0.5 µM)
Outline: as §1

Cell Line | relative viability (Neratinib + Luminespib; first compound 0.03162 µM) | relative viability (Neratinib + Luminespib; first compound 0.3162 µM) | relative viability (Neratinib + Luminespib; first compound 1 µM) | relative viability (Neratinib + Pictilisib; first compound 0.01 µM) | relative viability (Neratinib + Pictilisib; first compound 0.03162 µM) | relative viability (Neratinib + Pictilisib; first compound 0.1 µM) | relative viability (Neratinib + Pictilisib; first compound 0.3162 µM) | relative viability (Neratinib + Pictilisib; first compound 1 µM) | relative viability (Neratinib + Palbociclib; first compound 0.01 µM) | relative viability (Neratinib + Palbociclib; first compound 0.03162 µM) | relative viability (Neratinib + Palbociclib; first compound 0.1 µM) | relative viability (Neratinib + Palbociclib; first compound 0.3162 µM) | relative viability (Neratinib + Palbociclib; first compound 1 µM) | relative viability (Neratinib + OSI-027; first compound 0.01 µM) | relative viability (Neratinib + OSI-027; first compound 0.03162 µM) | relative viability (Neratinib + OSI-027; first compound 0.1 µM) | relative viability (Neratinib + OSI-027; first compound 0.3162 µM) | relative viability (Neratinib + OSI-027; first compound 1 µM) | relative viability (Neratinib + Luminespib; first compound 0.01 µM) | relative viability (Neratinib + Luminespib; first compound 0.1 µM)
NCI-H1944 | 0.669 | 0.523 | 0.306 | 0.387 | 0.341 | 0.193 | 0.31 | 0.266 | 0.365 | 0.32 | 0.264 | 0.241 | 0.247 | 0.467 | 0.419 | 0.337 | 0.286 | 0.289 |  | 
NCI-H596 | 1.04 | 1.02 | 0.758 | 0.374 | 0.417 | 0.35 | 0.4 | 0.329 |  |  |  |  |  | 0.771 | 0.822 | 0.686 | 0.704 | 0.386 | 1.04 | 1.02
LU99A | 0.19 | 0.333 | 0.22 | 0.31 | 0.311 | 0.285 | 0.263 | 0.207 | 0.377 | 0.434 | 0.356 | 0.385 | 0.329 | 0.287 | 0.311 | 0.292 | 0.288 | 0.26 | 0.268 | 0.231
NCI-H727 | 0.337 | 0.312 | 0.352 | 0.337 | 0.256 |  | 0.516 | 0.258 | 0.616 | 0.69 |  | 0.639 | 0.538 | 0.58 | 0.68 | 0.466 | 0.638 | 0.406 | 0.382 | 0.328
